The assay has as its target HLA A*3201 (Homo sapiens, UniProt P04439, A270S/D101S/D185E/E176V/E277Q/F133L/G103R/G107R/G231S/H175R/I121M/I218V/I322F/K168Q/L105A/L300P/L318F/M331R/P208A/P217A/Q94H/R106L/R138Q/S129P/T104I/T323A/T345S/V100E/V321M/V358M). The assay can be described thus: biochemical. It is filed as binding.

Where a SMILES comes first, the peptide text is derived from it.

As to `CC(C)C[C@H](NC(=O)[C@H](Cc1ccccc1)NC(=O)[C@H](CO)NC(=O)[C@H](CC(C)C)NC(=O)[C@@H](N)CCCCN)C(=O)N[C@@H](CO)C(=O)N[C@@H](CCCNC(=N)N)C(=O)N[C@H](C(=O)N[C@@H](Cc1ccccc1)C(=O)O)C(C)C` [3102.0332] (H-KLSFLSRVF-OH), it took 2.2 nM to reach half-maximal inhibition (IC50). Next, `CC[C@H](C)[C@H](N)C(=O)N[C@H](C(=O)N[C@@H](CO)C(=O)N[C@H](C(=O)N[C@H](C(=O)N[C@@H](CO)C(=O)N[C@@H](CC(C)C)C(=O)N[C@H](C(=O)N[C@H](C(=O)O)[C@@H](C)CC)C(C)C)[C@@H](C)CC)C(C)C)[C@@H](C)CC` [3102.0334] (H-IISVISLVI-OH): 47 nM; `CC[C@H](C)[C@H](NC(=O)[C@H](CCCCN)NC(=O)[C@H](CCC(N)=O)NC(=O)[C@H](C)NC(=O)[C@@H](NC(=O)CNC(=O)[C@H](Cc1ccc(O)cc1)NC(=O)[C@H](CC(C)C)NC(=O)[C@@H](N)CCSC)[C@@H](C)CC)C(=O)O` [3102.0335] (H-MLYGIAQKI-OH): 12 nM; `CC[C@H](C)[C@H](NC(=O)[C@@H](NC(=O)[C@@H](NC(=O)[C@@H](NC(=O)[C@@H](NC(=O)[C@@H](NC(=O)[C@H](CC(N)=O)NC(=O)[C@@H](NC(=O)[C@@H](N)C(C)C)[C@@H](C)O)C(C)C)[C@@H](C)CC)[C@@H](C)CC)[C@@H](C)CC)C(C)C)C(=O)O` [3102.0336] (H-VTNVIIIVI-OH): 14 nM.

On to `CC[C@H](C)[C@H](NC(=O)[C@@H](NC(=O)[C@H](CC(C)C)NC(=O)[C@@H](NC(=O)[C@H](CCCNC(=N)N)NC(=O)[C@H](CC(N)=O)NC(=O)[C@@H](NC(=O)[C@@H](NC(=O)CN)[C@@H](C)O)[C@@H](C)CC)[C@@H](C)CC)C(C)C)C(=O)O` [3102.0337] (H-GTINRILVI-OH), for which half-maximal inhibition (IC50) was put at 15 nM. The molecule `CC[C@H](C)[C@H](N)C(=O)N[C@H](C(=O)N[C@@H](CC(C)C)C(=O)N[C@@H](Cc1c[nH]cn1)C(=O)N[C@@H](CC(C)C)C(=O)N[C@@H](C)C(=O)N[C@@H](CS)C(=O)NCC(=O)N[C@@H](Cc1ccccc1)C(=O)O)[C@@H](C)O` [3102.0338] (H-ITLHLACGF-OH) registered an IC50 of 1.4 nM. Regarding `CSCC[C@H](N)C(=O)N[C@H](C(=O)N[C@@H](CS)C(=O)NCC(=O)N[C@@H](CCC(N)=O)C(=O)N1CCC[C@H]1C(=O)N[C@@H](CC(C)C)C(=O)N[C@@H](CO)C(=O)N[C@@H](CC(C)C)C(=O)O)[C@@H](C)O` [3102.0339] (H-MTCGQPLSL-OH), the IC50 worked out at 5.6 nM. For `CC[C@H](C)[C@H](NC(=O)[C@H](CC(C)C)NC(=O)[C@H](Cc1c[nH]cn1)NC(=O)[C@H](Cc1ccccc1)NC(=O)[C@H](CC(N)=O)NC(=O)[C@H](Cc1ccccc1)NC(=O)[C@@H](NC(=O)[C@@H](NC(=O)[C@@H](N)CCCNC(=N)N)[C@@H](C)O)[C@@H](C)CC)C(=O)O` [3102.0342] (H-RTIFNFHLI-OH), the IC50 was determined as 2.1 nM.

`CC(C)C[C@H](NC(=O)[C@H](CC(N)=O)NC(=O)[C@H](Cc1ccc(O)cc1)NC(=O)[C@H](Cc1ccc(O)cc1)NC(=O)[C@@H](NC(=O)[C@H](Cc1ccc(O)cc1)NC(=O)[C@H](Cc1ccccc1)NC(=O)[C@H](CC(C)C)NC(=O)[C@@H](N)CCCCN)C(C)C)C(=O)O` [3102.0343] (H-KLFYVYYNL-OH) displayed an IC50 of 0.34 nM. On to `CC[C@H](C)[C@H](NC(=O)[C@H](CC(N)=O)NC(=O)[C@@H](NC(=O)[C@@H](NC(=O)[C@H](Cc1ccccc1)NC(=O)[C@@H](NC(=O)[C@H](C)NC(=O)[C@H](CC(C)C)NC(=O)[C@H](C)N)[C@@H](C)O)[C@@H](C)O)C(C)C)C(=O)O` [3102.0344] (H-ALATFTVNI-OH), for which 6.1 nM corresponded to half-maximal inhibition (IC50). `CC[C@H](C)[C@H](NC(=O)[C@@H](NC(=O)[C@H](Cc1ccc(O)cc1)NC(=O)[C@H](CO)NC(=O)[C@@H](N)CCCCN)[C@@H](C)O)C(=O)N[C@@H](CCCNC(=N)N)C(=O)N[C@H](C(=O)N[C@@H](Cc1ccccc1)C(=O)N[C@@H](Cc1ccccc1)C(=O)O)C(C)C` [3102.0345] (H-KSYTIRVFF-OH): the midpoint of inhibition, the IC50, lay at 1.1 nM. Turning to `CC[C@H](C)[C@H](N)C(=O)N[C@H](C(=O)N[C@@H](Cc1ccccc1)C(=O)N[C@@H](CC(=O)O)C(=O)N[C@H](C(=O)N[C@@H](Cc1ccc(O)cc1)C(=O)N[C@@H](Cc1ccccc1)C(=O)N[C@@H](C)C(=O)N[C@H](C(=O)O)[C@@H](C)CC)[C@@H](C)CC)[C@@H](C)CC` [3102.0346] (H-IIFDIYFAI-OH), half-maximal inhibition (IC50) was put at 0.93 nM. `CSCC[C@H](NC(=O)[C@H](Cc1ccc(O)cc1)NC(=O)[C@H](Cc1ccccc1)NC(=O)[C@H](CC(C)C)NC(=O)[C@@H](N)CCSC)C(=O)N[C@@H](CC(=O)O)C(=O)N[C@@H](CC(C)C)C(=O)N[C@@H](CO)C(=O)N[C@@H](Cc1ccc(O)cc1)C(=O)O` [3102.0347] (H-MLFYMDLSY-OH): the IC50 came to 1.2 nM. `CC[C@H](C)[C@H](NC(=O)[C@H](Cc1c[nH]cn1)NC(=O)[C@@H](NC(=O)[C@H](CO)NC(=O)[C@@H](NC(=O)[C@H](C)NC(=O)[C@H](CO)NC(=O)[C@H](CC(C)C)NC(=O)[C@@H](N)CO)C(C)C)C(C)C)C(=O)O` [3102.0349] (H-SLSAVSVHI-OH) came in with an IC50 of 34 nM.

In turn, `CC[C@H](C)[C@H](NC(=O)[C@@H](NC(=O)[C@H](CO)NC(=O)[C@H](CC(C)C)NC(=O)[C@@H](NC(=O)[C@H](CCSC)NC(=O)[C@H](CCSC)NC(=O)[C@@H](NC(=O)[C@H](C)N)[C@@H](C)CC)[C@@H](C)CC)[C@@H](C)O)C(=O)O` [3102.0350] (H-AIMMILSTI-OH) showed an IC50 of 2.5 nM. In the case of `CC[C@H](C)[C@H](N)C(=O)N[C@@H](CCSC)C(=O)N[C@@H](CCSC)C(=O)N[C@H](C(=O)N[C@@H](CC(C)C)C(=O)N[C@@H](CO)C(=O)N[C@H](C(=O)N[C@H](C(=O)N[C@H](C(=O)O)[C@@H](C)CC)[C@@H](C)CC)[C@@H](C)O)[C@@H](C)CC` [3102.0351] (H-IMMILSTII-OH), the IC50 was determined as 11 nM. Turning to `CC[C@H](C)[C@H](NC(=O)[C@H](CC(=O)O)NC(=O)[C@H](CC(C)C)NC(=O)[C@@H](NC(=O)[C@@H](N)CC(C)C)[C@@H](C)O)C(=O)N[C@@H](Cc1ccccc1)C(=O)N[C@@H](Cc1ccc(O)cc1)C(=O)N[C@@H](CC(C)C)C(=O)N[C@@H](Cc1ccccc1)C(=O)O` [3102.0354] (H-LTLDIFYLF-OH), the IC50 worked out at 4.4 nM. Next, `CC[C@H](C)[C@H](NC(=O)[C@@H](NC(=O)[C@@H](NC(=O)[C@H](CC(=O)O)NC(=O)[C@@H](NC(=O)[C@H](Cc1ccccc1)NC(=O)[C@@H](NC(=O)[C@@H](NC(=O)[C@@H](N)CO)[C@@H](C)CC)C(C)C)C(C)C)C(C)C)[C@@H](C)CC)C(=O)O` [3102.0355] (H-SIVFVDVII-OH): 59 nM; `CC[C@H](C)[C@H](NC(=O)CNC(=O)[C@@H](NC(=O)[C@@H](NC(=O)[C@H](CC(C)C)NC(=O)CNC(=O)[C@H](CS)NC(=O)[C@@H](NC(=O)[C@@H](N)C(C)C)[C@@H](C)CC)[C@@H](C)CC)C(C)C)C(=O)O` [3102.0356] (H-VICGLIVGI-OH): 26 nM; `CC[C@H](C)[C@H](NC(=O)[C@H](CO)NC(=O)[C@@H](NC(=O)[C@@H](NC(=O)[C@H](Cc1c[nH]c2ccccc12)NC(=O)[C@H](CCCCN)NC(=O)[C@H](CCSC)NC(=O)[C@H](CCSC)NC(=O)[C@@H](N)CCSC)[C@@H](C)CC)[C@@H](C)CC)C(=O)O` [3102.0357] (H-MMMKWIISI-OH): 0.17 nM. Regarding `CC[C@H](C)[C@H](NC(=O)[C@H](CC(C)C)NC(=O)[C@H](CC(N)=O)NC(=O)[C@H](C)NC(=O)[C@H](Cc1ccccc1)NC(=O)[C@H](CCCNC(=N)N)NC(=O)[C@H](CO)NC(=O)[C@@H](NC(=O)[C@@H](N)CCCNC(=N)N)[C@@H](C)CC)C(=O)O` [3102.0360] (H-RISRFANLI-OH), the IC50 came out at 6.2 nM. In turn, `CC[C@H](C)[C@H](N)C(=O)N[C@H](C(=O)N[C@@H](CCSC)C(=O)N[C@H](C(=O)N[C@@H](CC(N)=O)C(=O)N[C@@H](CO)C(=O)N[C@@H](CC(C)C)C(=O)N[C@H](C(=O)N[C@@H](Cc1ccc(O)cc1)C(=O)O)[C@@H](C)O)C(C)C)[C@@H](C)O` [3102.0363] (H-ITMVNSLTY-OH) returned an IC50 of 96 nM.

Take `CC[C@H](C)[C@H](NC(=O)[C@H](CO)NC(=O)[C@@H](N)CCCCN)C(=O)N[C@@H](CC(N)=O)C(=O)N[C@H](C(=O)N[C@@H](CCC(=O)O)C(=O)N[C@@H](Cc1ccc(O)cc1)C(=O)N[C@@H](CCCNC(=N)N)C(=O)N[C@@H](Cc1ccccc1)C(=O)O)C(C)C` [3102.0364] (H-KSINVEYRF-OH): the IC50 was determined as 1.5 nM. The molecule `CSCC[C@H](NC(=O)[C@@H](N)CCCCN)C(=O)N[C@@H](CC(=O)O)C(=O)N[C@@H](CC(N)=O)C(=O)NCC(=O)N[C@H](C(=O)N[C@@H](CC(C)C)C(=O)N[C@@H](CCC(=O)O)C(=O)N[C@@H](Cc1ccccc1)C(=O)O)[C@@H](C)O` [3102.0365] (H-KMDNGTLEF-OH) came in with an IC50 of 0.92 nM. As to `CC[C@H](C)[C@H](NC(=O)[C@H](CO)NC(=O)[C@@H](NC(=O)[C@H](CCC(=O)O)NC(=O)[C@H](CC(N)=O)NC(=O)[C@H](Cc1ccc(O)cc1)NC(=O)[C@@H](NC(=O)[C@@H](NC(=O)[C@@H](N)CCCNC(=N)N)[C@@H](C)O)[C@@H](C)CC)[C@@H](C)O)C(=O)O` [3102.0366] (H-RTIYNETSI-OH), 1 nM corresponded to half-maximal inhibition (IC50). For `CC[C@H](C)[C@H](NC(=O)[C@@H](NC(=O)[C@H](CC(C)C)NC(=O)[C@H](C)NC(=O)[C@@H](NC(=O)[C@@H](NC(=O)[C@@H](NC(=O)[C@@H](NC(=O)[C@@H](N)Cc1c[nH]cn1)[C@@H](C)CC)[C@@H](C)CC)[C@@H](C)CC)C(C)C)[C@@H](C)O)C(=O)O` [3102.0368] (H-HIIIVALTI-OH) the value was 79 nM. `CC[C@H](C)[C@H](N)C(=O)N[C@H](C(=O)N[C@@H](Cc1ccc(O)cc1)C(=O)NCC(=O)N[C@@H](CCCNC(=N)N)C(=O)N[C@@H](CO)C(=O)N[C@@H](CC(N)=O)C(=O)N[C@@H](C)C(=O)N[C@H](C(=O)O)[C@@H](C)CC)C(C)C` [3102.0369] (H-IVYGRSNAI-OH) returned a 50% inhibitory concentration (IC50) of 3.2 nM.

For orientation: IC50 means the concentration at which inhibition is half-maximal.

The values are drawn from paper PMC2248166, “Quantitative peptide binding motifs for 19 human and mouse MHC class I molecules derived using positional scanning combinatorial peptide libraries” (Immunome Research, 2008).
